Experiments:
[1] = test system: hippocampal slices from Fmr1-KO mice and wildtype littermates; assay: DHPG-induced mGluR-LTD of field potentials in hippocampal slices of Fmr1-KO and WT mice; type: cell-based, C57BL/6 congenic mice
Experimental: ACSF at a rate of 2 ml/min.
Fresh stocks were made once a week.

[2] = test system: high-density cultured hippocampal neurons; assay: Biotinylation and quantitative western blot of surface expressed receptors; type: cell-based, rat; details: DHPG 50 μM, 5 min
Experimental: To confirm the effect of mGluR activation on surface AMPARs using an alternative approach, we treated high-density cultures with DHPG (50 μM, 5 min) or control medium and surface receptors were labeled with biotin 60 minutes later. Biotinylated receptors were precipitated and the ratio of surface to total GluR1 was determined by quantitative western blotting. This biochemical analysis confirmed that surface AMPARs are reduced by DHPG treatment to only 56.8±4.0% of the value in control cultures (n=4 in each treatment group; p<0.01; FIG. 6).
Biotinylation experiments were performed as previously described^35. Briefly, 2-week-old high-density cultured hippocampal neurons were treated with either control medium or 50 μM DHPG for 5 min, and incubated for 1 h at 37° C. to allow endocytosis to occur. The sister cultures were placed on ice to stop endocytosis and washed two times with ice-cold artificial cerebrospinal fluid (ACSF) containing 124 mM NaCl, 5 mM KCl, 1.25 mM NaH2PO4, 26 mM NaHCO3, 0.8 mM MgCl2, 1.8 mM CaCl2, 10 mM dextrose, and saturated with 95% O2, 5% CO2. Cultures were then incubated with ACSF containing 1 mg/ml Sulfo-NHS-LC-Biotin (Pierce Chemical Company, Rockford, Ill.) for 30 min on ice. Cultures were rinsed in TBS to quench the biotin reaction. […] Quantitative western blots were performed on both total and biotinylated (surface) proteins using anti-GluR1 C-terminal (1:1000, Upstate Biotechnology, Lake Placid, N.Y.) and anti-NR1 N-terminal antibodies (1:1000, Chemicon). […] Digital images, produced by densitometric scans of autoradiographs on a ScanJet IIcx (Hewlett Packard, Palo Alto, Calif.) with DeskScan II software (Hewlett Packard), were quantified using NIH Image 1.60 software. The surface/total ratio was calculated for each culture, and treatment groups were compared using a paired t-test. […] For display purposes, the data are expressed as the ratio of DHPG to control values.

[3] = test system: CA1 neurons in hippocampal slices; assay: NMDA-evoked currents in CA1 neurons of hippocampal slices; type: cell-based, Long Evans rats; details: DHPG 100 μM, 5 min; 50-60 min after treatment
Experimental: As an additional test for an mGluR-induced loss of NMDAR function, we examined the effects of 100 μM DHPG (5 min) on currents evoked by NMDA applied near the proximal portion of the primary apical dendrite (FIG. 9B). Significant depression of NMDAR currents occurred (percent baseline at 50-60 min after DHPG treatment, DHPG, 61.1±12.0, n=7; control, 97.3±9.4; n=7; p<0.05); however, the time course of this change was much slower than that observed for synaptically evoked EPSCs. […] The early LTD of EPSCs could be accounted for by a presynaptic mechanism or by the rapid dispersal of synaptic NMDARs (without immediate internalization). […] Regardless of the early consequences, however, the parallel depression of NMDAR EPSCs and NMDA-evoked responses 60 minutes after DHPG treatment is consistent with an eventual reduction in surface NMDAR expression during mGluR-LTD.
Hippocampal slices were prepared from P21-30 Long Evans rats (Charles River, Cambridge, Mass.) as described previously^13,14. Slices recovered for 1-2 h at room temperature in artificial cerebrospinal fluid (ACSF) containing 124 mM NaCl, 5 mM KCl, 1.25 mM NaH2PO4, 26 mM NaHCO3, 1 mM MgCl2, 2 mM CaCl2, 10 mM dextrose, saturated with 95% O2, 5% CO2. […]
Synaptically evoked-NMDAR-mediated EPSCs were recorded from area CA1 as described previously for visual cortex^20. […]

[4] = DHPG 100 μM, 5 min, in APV, 60 min after DHPG

Question: Which results are given for `NC(C(=O)O)c1cc(O)cc(O)c1` (racemic) [DHPG, (RS)-3,5-dihydroxyphenylglycine]?
Answer: FP slope, % of pre-DHPG baseline, Fmr1-KO mice [1, 4]: 77±3%; FP slope, % of pre-DHPG baseline, WT mice [1, 4]: 88±4%; maximal acute depression, % of pre-DHPG baseline values, KO ([1]; DHPG, Fmr1-KO slices): 26±5%; maximal acute depression, % of pre-DHPG baseline values, WT ([1]; DHPG, WT slices): 36±4%; surface NR1 (surface/total), % of the value in control cultures ([2]; 60 minutes later, cycloheximide 60 μM with DHPG where named): 32.3±8.2%; surface GluR1 (surface/total), % of the value in control cultures ([2]; biotin labeling 60 minutes later): 56.8±4.0%; NMDA-evoked currents, percent baseline [3]: 61.1±12.0 percent baseline

Source: patent US7648993B2, “Methods of treating disorders with Group I mGluR antagonists” (Brown University, priority 2001, dated 2010)
